What was measured:
TNF-RE-tk-Luc = assay: Effect of antiestrogens on TNF-RE-tk-Luc (Example 2); type: cell-based, human; conditions: for effect on the repression induced by E2: TNF-RE-tk-Luc; for activation of TNF-RE-tk-Luc: antiestrogens, in contrast to E2
Source text: (§1) Plasmid Construction. A PstI to AhaII fragment from the human TNF-α gene, pLT, was cloned upstream of the luciferase cDNA. […] ERβ mutants were created with QuikChange site-directed mutagenesis kits (Stratagene), by using oligonucleotides containing the mutation. The mutants were sequenced with Sequenase kits (Amersham Pharmacia) to verify the presence of the mutation.
(§2) For experiments, cells were collected, transferred to a cuvette, and then electroporated with a Bio-Rad gene pulser as described previously using 3 μg of reporter plasmid and 1 μg of ERα or ERβ expression vectors. After electroporation, the cells were re-suspended in media and plated at 1 ml/dish in 12-well multiplates. […] The concentration of hormone required to produce a half-maximal induction (EC50) or inhibition (IC50) of luciferase activity was calculated with the Prism curve-fitting program (Graph Pad Software, version 2.0b). […] The cells were plated in duplicate at a density of 25,000 cells/35-mm plate in tissue culture medium containing 3% stripped fetal bovine serum. […] After 8 days the cells were counted with a Coulter counter.

[1] = system: estrogen receptor-positive breast cancer; conditions: five years of therapy; cited from earlier work
[2] = system: primary invasive breast cancer; conditions: women at high risk for breast cancer; cited from earlier work
ERβ [3] = target: T1, ERβ (Homo sapiens, UniProt Q92731); assay: Repression of TNF-α activation of TNF-RE-tk-Luc in U2OS cells with transfected ERβ; type: cell-based
T1 construct: expressed in transfected cells
Source text: as §1, §2
The extracts (a and b) were than decanted and only the soluble material was used.

ERβ [4] = target: T1, ERβ; assay: Repression of TNF-α activation of TNF-RE-tk-Luc with ERβ (Example 2); type: cell-based; conditions: in the presence of ERβ
Source text: as §1, §2

breast cancer = conditions: among the 5129 women in the treatment group; median follow-up of 40 months; cited from earlier work

T1 sequence (Q92731 whole entry): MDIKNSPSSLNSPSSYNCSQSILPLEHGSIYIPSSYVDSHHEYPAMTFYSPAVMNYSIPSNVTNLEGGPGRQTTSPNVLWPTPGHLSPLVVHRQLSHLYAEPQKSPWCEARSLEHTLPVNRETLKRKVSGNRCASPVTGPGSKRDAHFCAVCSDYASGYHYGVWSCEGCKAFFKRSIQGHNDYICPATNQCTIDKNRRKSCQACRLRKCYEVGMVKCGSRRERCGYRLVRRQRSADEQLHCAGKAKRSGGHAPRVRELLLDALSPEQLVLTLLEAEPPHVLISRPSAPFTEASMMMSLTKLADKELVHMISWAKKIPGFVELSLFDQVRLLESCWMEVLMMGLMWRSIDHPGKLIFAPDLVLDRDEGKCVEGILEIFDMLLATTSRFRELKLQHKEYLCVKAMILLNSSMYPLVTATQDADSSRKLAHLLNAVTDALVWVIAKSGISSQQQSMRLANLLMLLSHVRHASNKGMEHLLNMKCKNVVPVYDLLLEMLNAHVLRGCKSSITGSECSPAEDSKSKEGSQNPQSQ

SMILES | effect on the repression induced by E2 (TNF-RE-tk-Luc) | activation of TNF-RE-tk-Luc (TNF-RE-tk-Luc) [fold] | reduction of mortality from breast cancer [1] [%] | reduction of the risk of recurrences [1] [%] | reduction of the risk of primary invasive breast cancer [2] [%] | repression of TNF-α activation of TNF-RE (ERβ [3]) [%] | repression of TNF-α activation of TNF-RE-tk-Luc (ERβ [4]) | cases of breast cancer (breast cancer)
CC/C(=C(\c1ccccc1)c1ccc(OCCN(C)C)cc1)c1ccccc1 [tamoxifen] | abolished the repression induced by E2 | 2 | 22 | 42 | 49 | – | – | –
C[C@]12CC[C@@H]3c4ccc(O)cc4CC[C@H]3[C@@H]1CC[C@@H]2O [E2, estradiol] | – | – | – | – | – | 100 | 60-80% | –
O=C(c1ccc(OCCN2CCCCC2)cc1)c1c(-c2ccc(O)cc2)sc2cc(O)ccc12 [raloxifene] | abolished the repression induced by E2 | 2 | – | – | – | – | – | 13
C[C@]12CC[C@@H]3c4ccc(O)cc4C[C@@H](CCCCCCCCC[S+]([O-])CCCC(F)(F)C(F)(F)F)[C@H]3[C@@H]1CC[C@@H]2O (stereo partly drawn) [ICI 182,780] | abolished the repression induced by E2 | 2 | – | – | – | – | – | –

From patent US20060134243A1, “Method of using extracts of epimedium species” (Bionovo, Inc., priority 2004, published 2006)
